Reference: patent publication US20020137929A1, “1 - (3-heterocyclylphenyl) isothiourea, -isourea, -guanidine and -amidine herbicidal agents” (Intellectual Property Department, BASF Aktiengesellschaft, priority 1998, published 2002)

Columns and labels:
[1] = tested on: SAGPY (Arrowhead (Pygmaea)); test: Postemergence weed control under flooded paddy conditions; assay type: in vivo, Sagittaria pygmaea; conditions: postemergence weeds, 3-4 weeks after treatment
Outline: (§1)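 Flood-water application, about 0.0313–0.500 kg/ha a.i. in aqueous/acetone 50/50 v/v; water depth 1.5–3 cm throughout. Weeds 3–5 cm, rice 1.5–2.5 leaf. Greenhouse; 0–9 visual rating vs control at 3–4 wk.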

CYPSE (Flatsedge) = test: as above; assay type: in vivo, Cyperus serotinus; conditions: postemergence weeds, 3-4 weeks after treatment
Outline: as §1

ORYSAT (Rice, Tebonnet) = test: Postemergence herbicidal evaluation; assay type: in vivo, Oryza sativa, (L.) Tebonnet; conditions: postemergence
Outline: (§2)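 Young plants, roughly two weeks from seeding, receive the active ingredient as a sprayed dispersion (acetone/water 50/50, 0.5% TWEEN 20) at 40 psi. Doses span about 0.0156 to 0.500 kg/ha. A visual score from 0 to 9 compares treated with control plants four to five weeks on.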

CYPIR (Rice Flatsedge) [2] = test: Preemergence weed control under flooded paddy conditions; assay type: in vivo, Cyperus iria; conditions: rated 3-4 weeks after treatment
Outline: (§3)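 Ratings on a 0-9 visual scale cover stand, vigor, malformation, size, chlorosis and overall appearance relative to a control, taken three to four weeks post-treatment. Application was into flood water over freshly sown silt loam at roughly 0.0313 to 0.500 kg/ha.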

ABUTH (Velvetleaf) = test: Postemergence herbicidal evaluation; assay type: in vivo, Abutilon theophrasti; conditions: postemergence
Outline: as §2

MOOVA (Monochoria) = test: Preemergence weed control under flooded paddy conditions; assay type: in vivo, Monochoria vaginalis; conditions: rated 3-4 weeks after treatment
Outline: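 Seeds or propagules sown in top 0.5 cm of silt loam soil, flooded 1.5 to 3 cm above surface throughout. Compound in 50/50 v/v aqueous/acetone pipetted into flood water at about 0.0313 to 0.500 kg/ha. Visual 0-9 rating versus control after three to four weeks in greenhouse.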

ZEAMX (Corn, Field) = test: Preemergence herbicidal evaluation; assay type: in vivo, Zea mays; conditions: rated 4-5 weeks after treatment
Outline: (§4)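 Visual 0-9 rating vs control (stand, vigor, malformation, size, chlorosis, overall appearance), scored 4-5 wk after spraying. Seeded soil cups were treated preemergence with compound in aqueous acetone, ~0.0156-0.500 kg/ha equivalent.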

ECHCG (Barnyardgrass) = test: Postemergence herbicidal evaluation; assay type: in vivo, Echinochloa crus-galli; conditions: postemergence
Outline: as §2

[3] = tested on: TRZAWR (Wheat, Winter, cv Riband); test: Preemergence herbicidal evaluation; assay type: in vivo, Triticum aestivum; conditions: rated 4-5 weeks after treatment
Outline: as §4

SETVI (Foxtail, Green) = test: Postemergence herbicidal evaluation; assay type: in vivo, Setaria viridis; conditions: postemergence
Outline: as §2

[4] = tested on: ECHORC (Watergrass (Calif.)); test: Preemergence weed control under flooded paddy conditions; assay type: in vivo, Echinochloa oryzoides; conditions: rated 3-4 weeks after treatment
Outline: as §3

CYPIR (Rice Flatsedge) [5] = test: Postemergence weed control under flooded paddy conditions; assay type: in vivo, Cyperus iria; conditions: postemergence weeds, 3-4 weeks after treatment
Outline: as §1

GALAP (Galium) = test: Postemergence herbicidal evaluation; assay type: in vivo, Galium aparine; conditions: postemergence
Outline: as §2

O=C1CSC(=Nc2cc(N3C(=O)C4=C(CCCC4)C3=O)c(F)cc2Cl)N1c1ccccc1 [Compound 3, N-{4-chloro-2-fluoro-5-[(4-oxo-3-phenyl-2-thiazolidinylidene)amino]phenyl}-1-cyclohexene-1,2-dicarboximide]
Herbicidal rating SAGPY ([1]; rate 0.0625 kg/ha): 0.0 | Herbicidal rating SAGPY ([1]; rate 0.1250 kg/ha): 0.0 | Herbicidal rating SAGPY ([1]; rate 0.2500 kg/ha): 0.0 | Herbicidal rating SAGPY ([1]; rate 0.5000 kg/ha): 0.0 | Herbicidal rating CYPSE (CYPSE (Flatsedge); rate 0.0625 kg/ha): 0.0 | Herbicidal rating CYPSE (CYPSE (Flatsedge); rate 0.1250 kg/ha): 0.0 | Herbicidal rating CYPSE (CYPSE (Flatsedge); rate 0.2500 kg/ha): 0.0 | Herbicidal rating CYPSE (CYPSE (Flatsedge); rate 0.5000 kg/ha): 0.0 | ORYSAT herbicidal rating (ORYSAT (Rice, Tebonnet); rate 0.0157 kg/ha): 2.0 | ORYSAT herbicidal rating (ORYSAT (Rice, Tebonnet); rate 0.0313 kg/ha): 2.5 | ORYSAT herbicidal rating (ORYSAT (Rice, Tebonnet); rate 0.0625 kg/ha): 3.0 | ORYSAT herbicidal rating (ORYSAT (Rice, Tebonnet); rate 0.1250 kg/ha): 3.0 | ORYSAT herbicidal rating (ORYSAT (Rice, Tebonnet); rate 0.2500 kg/ha): 2.0 | ORYSAT herbicidal rating (ORYSAT (Rice, Tebonnet); rate 0.5000 kg/ha): 3.5 | Herbicidal rating CYPIR (CYPIR (Rice Flatsedge) [2]; 0.0625 kg/ha): 0.0 | Herbicidal rating CYPIR (CYPIR (Rice Flatsedge) [2]; 0.1250 kg/ha): 0.0 | Herbicidal rating CYPIR (CYPIR (Rice Flatsedge) [2]; 0.2500 kg/ha): 0.0 | Herbicidal rating CYPIR (CYPIR (Rice Flatsedge) [2]; 0.5000 kg/ha): 0.0 | ABUTH herbicidal rating (ABUTH (Velvetleaf); rate 0.0157 kg/ha): 6.0 | ABUTH herbicidal rating (ABUTH (Velvetleaf); rate 0.0313 kg/ha): 6.0 | ABUTH herbicidal rating (ABUTH (Velvetleaf); rate 0.0625 kg/ha): 6.0 | ABUTH herbicidal rating (ABUTH (Velvetleaf); rate 0.1250 kg/ha): 9.0 | ABUTH herbicidal rating (ABUTH (Velvetleaf); rate 0.2500 kg/ha): 6.0 | ABUTH herbicidal rating (ABUTH (Velvetleaf); rate 0.5000 kg/ha): 9.0 | Herbicidal rating MOOVA (MOOVA (Monochoria); 0.0625 kg/ha): 2.0 | Herbicidal rating MOOVA (MOOVA (Monochoria); 0.1250 kg/ha): 9.0 | Herbicidal rating MOOVA (MOOVA (Monochoria); 0.2500 kg/ha): 9.0 | Herbicidal rating MOOVA (MOOVA (Monochoria); 0.5000 kg/ha): 9.0 | ZEAMX preemergence herbicidal rating (ZEAMX (Corn, Field); rate 0.0313 kg/ha): 0.0 | ZEAMX preemergence herbicidal rating (ZEAMX (Corn, Field); rate 0.0625 kg/ha): 0.0 | ZEAMX preemergence herbicidal rating (ZEAMX (Corn, Field); rate 0.1250 kg/ha): 1.0 | ZEAMX preemergence herbicidal rating (ZEAMX (Corn, Field); rate 0.2500 kg/ha): 2.0 | ZEAMX preemergence herbicidal rating (ZEAMX (Corn, Field); rate 0.5000 kg/ha): 4.0 | ECHCG herbicidal rating (ECHCG (Barnyardgrass); rate 0.0157 kg/ha): 0.0 | ECHCG herbicidal rating (ECHCG (Barnyardgrass); rate 0.0313 kg/ha): 0.0 | ECHCG herbicidal rating (ECHCG (Barnyardgrass); rate 0.0625 kg/ha): 0.0 | ECHCG herbicidal rating (ECHCG (Barnyardgrass); rate 0.1250 kg/ha): 0.0 | ECHCG herbicidal rating (ECHCG (Barnyardgrass); rate 0.2500 kg/ha): 0.0 | ECHCG herbicidal rating (ECHCG (Barnyardgrass); rate 0.5000 kg/ha): 0.0 | TRZAWR preemergence herbicidal rating ([3]; rate 0.0313 kg/ha): 0.0 | TRZAWR preemergence herbicidal rating ([3]; rate 0.0625 kg/ha): 0.0 | TRZAWR preemergence herbicidal rating ([3]; rate 0.1250 kg/ha): 0.0 | TRZAWR preemergence herbicidal rating ([3]; rate 0.2500 kg/ha): 2.0 | TRZAWR preemergence herbicidal rating ([3]; rate 0.5000 kg/ha): 2.0 | SETVI herbicidal rating (SETVI (Foxtail, Green); rate 0.0157 kg/ha): 0.0 | SETVI herbicidal rating (SETVI (Foxtail, Green); rate 0.0313 kg/ha): 0.0 | SETVI herbicidal rating (SETVI (Foxtail, Green); rate 0.0625 kg/ha): 0.0 | SETVI herbicidal rating (SETVI (Foxtail, Green); rate 0.1250 kg/ha): 0.0 | SETVI herbicidal rating (SETVI (Foxtail, Green); rate 0.2500 kg/ha): 0.0 | SETVI herbicidal rating (SETVI (Foxtail, Green); rate 0.5000 kg/ha): 0.0 | Herbicidal rating ECHORC ([4]; 0.0625 kg/ha): 0.0 | Herbicidal rating ECHORC ([4]; 0.1250 kg/ha): 0.0 | Herbicidal rating ECHORC ([4]; 0.2500 kg/ha): 2.0 | Herbicidal rating ECHORC ([4]; 0.5000 kg/ha): 4.0 | Herbicidal rating CYPIR (CYPIR (Rice Flatsedge) [5]; rate 0.0625 kg/ha): 0.0 | Herbicidal rating CYPIR (CYPIR (Rice Flatsedge) [5]; rate 0.1250 kg/ha): 0.0 | Herbicidal rating CYPIR (CYPIR (Rice Flatsedge) [5]; rate 0.2500 kg/ha): 0.0 | Herbicidal rating CYPIR (CYPIR (Rice Flatsedge) [5]; rate 0.5000 kg/ha): 0.5 | GALAP herbicidal rating (GALAP (Galium); rate 0.0157 kg/ha): 9.0 | GALAP herbicidal rating (GALAP (Galium); rate 0.0313 kg/ha): 2.0 | GALAP herbicidal rating (GALAP (Galium); rate 0.0625 kg/ha): 4.0 | GALAP herbicidal rating (GALAP (Galium); rate 0.1250 kg/ha): 4.0 | GALAP herbicidal rating (GALAP (Galium); rate 0.2500 kg/ha): 6.0 | GALAP herbicidal rating (GALAP (Galium); rate 0.5000 kg/ha): 9.0
